Test results as given in ChEMBL document CHEMBL1201862, “PubChem BioAssay data set” (2004).
Calls of active or inactive are those of the source.

Assays:
[1] = biological target: T1, Low molecular weight phosphotyrosine protein phosphatase (Homo sapiens, UniProt P24666); assay type: functional; details: read-out: IC50_Mean
T1 sequence (P24666 whole entry): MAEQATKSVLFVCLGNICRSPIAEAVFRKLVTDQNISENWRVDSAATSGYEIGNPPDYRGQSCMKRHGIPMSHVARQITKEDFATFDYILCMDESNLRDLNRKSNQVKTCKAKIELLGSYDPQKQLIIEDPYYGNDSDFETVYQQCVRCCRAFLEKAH

[2] = biological target: T1, Low molecular weight phosphotyrosine protein phosphatase; assay type: functional; details: read-out: IC50_Mean; remark: listed apart in the source
[3] = biological target: T2, Tyrosine-protein phosphatase non-receptor type 22 (Homo sapiens, UniProt Q9Y2R2); assay: PTPN22 enzyme inhibitors – biochemical, fluorescence, LYP catalytic domain, selectivity assay for LMPTP inhibitor project, dose response (AID 652006); assay type: functional; details: read-out: IC50_Mean
T2 sequence (Q9Y2R2 whole entry): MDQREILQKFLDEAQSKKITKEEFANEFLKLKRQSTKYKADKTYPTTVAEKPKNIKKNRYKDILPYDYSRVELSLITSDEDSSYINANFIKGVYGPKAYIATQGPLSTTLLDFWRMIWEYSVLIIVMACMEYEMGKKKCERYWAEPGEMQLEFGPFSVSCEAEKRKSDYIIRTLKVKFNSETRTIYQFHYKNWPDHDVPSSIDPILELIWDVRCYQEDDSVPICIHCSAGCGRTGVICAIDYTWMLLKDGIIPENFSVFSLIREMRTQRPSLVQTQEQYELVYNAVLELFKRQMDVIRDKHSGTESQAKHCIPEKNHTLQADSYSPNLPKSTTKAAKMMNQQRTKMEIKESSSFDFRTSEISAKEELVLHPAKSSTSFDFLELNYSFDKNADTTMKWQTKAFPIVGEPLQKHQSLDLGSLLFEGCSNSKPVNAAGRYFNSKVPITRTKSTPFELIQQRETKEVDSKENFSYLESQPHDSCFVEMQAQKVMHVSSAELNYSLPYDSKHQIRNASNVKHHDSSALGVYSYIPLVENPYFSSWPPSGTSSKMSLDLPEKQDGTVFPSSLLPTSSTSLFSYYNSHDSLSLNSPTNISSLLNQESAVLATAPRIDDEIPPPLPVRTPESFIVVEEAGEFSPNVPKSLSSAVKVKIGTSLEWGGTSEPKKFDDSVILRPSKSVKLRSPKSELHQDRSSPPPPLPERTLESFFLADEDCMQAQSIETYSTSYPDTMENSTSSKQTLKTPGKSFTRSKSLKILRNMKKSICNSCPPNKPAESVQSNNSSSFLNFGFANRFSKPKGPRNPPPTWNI

[4] = biological target: Mitochondrial peptide methionine sulfoxide reductase (Bos taurus, UniProt P54149); assay type: functional;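 note: absorbance read-out, biochemical high-throughput dose-response screen for MsrA inhibitors, confirmatory; recombinant bovine MsrA coupled to E. coli TrxB with NADPH and selenocystamine; potency is for inhibitors of MsrA activity on DMSO substrate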
Mitochondrial peptide methionine sulfoxide reductase, sequence (P54149 whole entry): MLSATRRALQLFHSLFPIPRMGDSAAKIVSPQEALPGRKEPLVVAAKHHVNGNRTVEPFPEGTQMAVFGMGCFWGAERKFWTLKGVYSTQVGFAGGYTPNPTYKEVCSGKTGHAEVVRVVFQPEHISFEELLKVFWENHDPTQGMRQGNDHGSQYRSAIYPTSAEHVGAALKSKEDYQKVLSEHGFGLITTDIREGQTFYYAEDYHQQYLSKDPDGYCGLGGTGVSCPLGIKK

[5] = biological target: Nuclear receptor subfamily 5 group A member 2 (Homo sapiens, UniProt O00482); assay type: functional, cell-based;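 note: HEK293T cells transfected with LRH-1 and a StAR promoter luciferase reporter; potency for inhibitors that lower LRH-1 driven reporter light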
Nuclear receptor subfamily 5 group A member 2, sequence (O00482 whole entry): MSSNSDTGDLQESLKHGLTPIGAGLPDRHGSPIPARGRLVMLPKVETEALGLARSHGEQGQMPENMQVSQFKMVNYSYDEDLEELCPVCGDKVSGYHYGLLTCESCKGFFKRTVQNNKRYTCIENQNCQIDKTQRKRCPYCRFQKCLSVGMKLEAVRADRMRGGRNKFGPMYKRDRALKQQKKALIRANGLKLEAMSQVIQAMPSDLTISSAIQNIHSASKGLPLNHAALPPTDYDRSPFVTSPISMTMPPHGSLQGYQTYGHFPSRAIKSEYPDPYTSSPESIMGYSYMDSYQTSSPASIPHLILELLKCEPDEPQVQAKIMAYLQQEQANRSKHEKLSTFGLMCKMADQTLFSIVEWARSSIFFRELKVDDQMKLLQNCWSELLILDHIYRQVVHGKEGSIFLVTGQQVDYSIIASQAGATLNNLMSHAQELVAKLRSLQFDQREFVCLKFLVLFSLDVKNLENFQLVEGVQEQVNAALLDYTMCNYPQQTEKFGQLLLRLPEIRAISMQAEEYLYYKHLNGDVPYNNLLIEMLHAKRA

Steroidogenic factor 1 = Steroidogenic factor 1 (Homo sapiens, UniProt Q13285); assay: Counterscreen for inverse agonists of the liver receptor homolog-1 (LRH-1; NR5A2): Luminescence-based cell-based high throughput dose response assay to identify inverse agonists of the Steroidogenic Factor 1 Nuclear Receptor (SF1; NR5A1).; assay type: functional
Steroidogenic factor 1, sequence (Q13285 whole entry): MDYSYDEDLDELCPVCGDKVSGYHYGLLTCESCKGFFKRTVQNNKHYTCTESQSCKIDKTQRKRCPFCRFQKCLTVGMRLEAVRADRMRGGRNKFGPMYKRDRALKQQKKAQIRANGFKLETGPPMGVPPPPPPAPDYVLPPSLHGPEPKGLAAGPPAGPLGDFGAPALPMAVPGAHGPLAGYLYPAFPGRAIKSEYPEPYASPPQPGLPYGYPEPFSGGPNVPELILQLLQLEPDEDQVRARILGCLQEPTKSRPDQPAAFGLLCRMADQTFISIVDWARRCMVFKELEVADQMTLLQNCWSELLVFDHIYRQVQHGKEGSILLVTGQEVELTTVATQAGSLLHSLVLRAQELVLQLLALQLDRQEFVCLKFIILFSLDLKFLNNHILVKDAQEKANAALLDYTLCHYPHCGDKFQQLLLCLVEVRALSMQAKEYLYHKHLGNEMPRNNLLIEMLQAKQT

[6] = nonselective StAR promoter luciferase inhibitors – cell-based, luminescence, luciferase reporter, counter-screen for LRH-1 inverse agonist project, dose response (AID 651969); assay type: functional

With `COc1cccc(N2CCN(C(=O)c3ccc(CSc4nc5cc[nH]cc-5n4)cc3)CC2)c1` the IC50 [1] was > 80 µM (inactive), the IC50 [2] was 14.3 µM (active) and the IC50 [3] was 65 µM (inactive).
For `CCCCCOC(=O)C(C)c1c(C)nc(S)nc1O` (configuration not stated), the IC50 [4] was 115 µM (inactive).
With `CCOCC(=O)Nc1ccc(S(=O)(=O)NCCc2ccccc2)cc1` the IC50 [5] was 18.4 µM (inactive), the IC50 (Steroidogenic factor 1) was 5.7 µM (active) and the IC50 [6] was 35.9 µM (inactive).
